Assay results as given in PMC6274642, “Small molecule inhibitors reveal allosteric regulation of USP14 via steric blockade” (Cell Research, 2018).

How the values were obtained:
proteasome-bound USP14 = proteasome-bound USP14 (Homo sapiens, UniProt P54578); test: Ub-AMC hydrolysis assay, proteasome-activated USP14
Experimental: It was used to measure the deubiquitinating activity of USP14 variants. The deubiquitination assay was performed by following a published protocol.[7] […] To start the reaction, 1 μM Ub-AMC was added to the system. […] Fluorescence intensity was recorded every 30 s for 15 min. Each experiment was repeated three times, and the average value was calculated.
curves for small-molecule-mediated inhibition of the Ub-AMC hydrolysis activity of
1 nM proteasome. (d-f) Dose-response curves for small-molecule-mediated inhibition of the
Ub-AMC hydrolysis activity of IsoT. The reaction system contained 1 μM Ub-AMC and 10
nM IsoT. All the values correspond to the averages of triplicate experiments.

IsoT = molecular target: T1, IsoT (Homo sapiens, UniProt P45974); test: Ub-AMC hydrolysis assay, IsoT; assay type: biochemical; conditions: 1 μM Ub-AMC, 10 nM IsoT
T1 construct: made in house
T1 sequence (P45974 1-858): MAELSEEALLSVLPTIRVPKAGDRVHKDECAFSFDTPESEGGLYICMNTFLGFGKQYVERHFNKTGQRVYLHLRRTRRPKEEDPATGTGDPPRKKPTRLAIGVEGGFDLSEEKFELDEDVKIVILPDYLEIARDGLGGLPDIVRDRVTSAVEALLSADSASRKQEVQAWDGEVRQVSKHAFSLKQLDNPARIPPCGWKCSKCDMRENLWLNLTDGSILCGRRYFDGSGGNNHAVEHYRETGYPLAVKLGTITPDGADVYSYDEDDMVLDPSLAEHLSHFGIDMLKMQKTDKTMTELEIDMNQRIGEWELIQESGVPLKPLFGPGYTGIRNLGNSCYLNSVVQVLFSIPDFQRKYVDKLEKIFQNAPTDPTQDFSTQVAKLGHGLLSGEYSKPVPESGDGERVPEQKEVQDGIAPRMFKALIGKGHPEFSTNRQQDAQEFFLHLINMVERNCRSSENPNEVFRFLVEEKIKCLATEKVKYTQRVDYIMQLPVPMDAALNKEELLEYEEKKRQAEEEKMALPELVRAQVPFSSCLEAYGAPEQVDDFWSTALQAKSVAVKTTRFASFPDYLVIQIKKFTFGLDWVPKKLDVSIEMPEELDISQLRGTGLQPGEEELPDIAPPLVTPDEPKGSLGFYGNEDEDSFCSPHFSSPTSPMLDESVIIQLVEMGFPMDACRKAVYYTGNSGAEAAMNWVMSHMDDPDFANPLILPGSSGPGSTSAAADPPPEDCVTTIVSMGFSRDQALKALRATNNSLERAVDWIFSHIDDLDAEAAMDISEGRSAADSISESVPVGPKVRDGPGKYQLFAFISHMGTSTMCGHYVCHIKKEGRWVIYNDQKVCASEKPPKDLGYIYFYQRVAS
Excerpt: Ub-AMC hydrolysis activity of IsoT.

USP14 Y436A [1] = molecular target: T2, USP14 Y436A (Homo sapiens, UniProt P54578, Y436A); test: In vitro Ub-PA assay, USP14 Y436A mutant; assay type: binding; design: catalytic domain (residues 96–494) of USP14 were cloned into the pGEX-6P-1 vector; GST (N); made in house
Target sequence in this assay (P54578 96-494 Y436A): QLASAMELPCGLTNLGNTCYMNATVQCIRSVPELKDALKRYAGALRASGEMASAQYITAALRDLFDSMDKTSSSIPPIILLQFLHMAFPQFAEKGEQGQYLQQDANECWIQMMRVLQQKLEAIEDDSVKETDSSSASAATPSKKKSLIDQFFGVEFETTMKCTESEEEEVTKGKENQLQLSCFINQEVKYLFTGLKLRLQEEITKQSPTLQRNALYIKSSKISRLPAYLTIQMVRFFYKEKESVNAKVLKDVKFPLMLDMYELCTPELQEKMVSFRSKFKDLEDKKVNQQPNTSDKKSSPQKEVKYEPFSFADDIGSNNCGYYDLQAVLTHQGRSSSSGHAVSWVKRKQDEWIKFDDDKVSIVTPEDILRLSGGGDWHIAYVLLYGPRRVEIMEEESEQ

USP14 H426E [2] = molecular target: T3, USP14 H426E (Homo sapiens, UniProt P54578, H426E); test: In vitro Ub-PA assay, USP14 H426E mutant; assay type: binding; design: catalytic domain (residues 96–494) of USP14 were cloned into the pGEX-6P-1 vector; GST (N); made in house
Target sequence in this assay (P54578 96-494 H426E): as the sequence (P54578 96-494 Y436A) above, with H331E, A341Y counted along it

USP14 = molecular target: T4, USP14 (Homo sapiens, UniProt P54578); test: Kinetic analysis (Vm, Km) of Ub-AMC hydrolysis by USP14; assay type: biochemical; conditions: Km varied, Vm unchanged with inhibitor concentration
T4 construct: Glutathione S-transferase (GST)-tagged full-length USP14; GST (N); made in house
Experimental: Menten plot of the concentration-dependence of Ub-AMC (1-48 μM) hydrolysis in the presence
The data were fit to a curve by nonlinear regression
(§1) (1 picture or pasted object on this page, not shown here)

Solubility = assay type: physicochemical; conditions: qualitative
USP7 F409A = molecular target: T5, USP7 F409A (Homo sapiens, UniProt Q93009, F409A); test: Ub-AMC hydrolysis assay, USP7 F409A; assay type: biochemical; conditions: 100 μM compound
T5 construct: made in house
T5 sequence (Q93009 whole entry F409A): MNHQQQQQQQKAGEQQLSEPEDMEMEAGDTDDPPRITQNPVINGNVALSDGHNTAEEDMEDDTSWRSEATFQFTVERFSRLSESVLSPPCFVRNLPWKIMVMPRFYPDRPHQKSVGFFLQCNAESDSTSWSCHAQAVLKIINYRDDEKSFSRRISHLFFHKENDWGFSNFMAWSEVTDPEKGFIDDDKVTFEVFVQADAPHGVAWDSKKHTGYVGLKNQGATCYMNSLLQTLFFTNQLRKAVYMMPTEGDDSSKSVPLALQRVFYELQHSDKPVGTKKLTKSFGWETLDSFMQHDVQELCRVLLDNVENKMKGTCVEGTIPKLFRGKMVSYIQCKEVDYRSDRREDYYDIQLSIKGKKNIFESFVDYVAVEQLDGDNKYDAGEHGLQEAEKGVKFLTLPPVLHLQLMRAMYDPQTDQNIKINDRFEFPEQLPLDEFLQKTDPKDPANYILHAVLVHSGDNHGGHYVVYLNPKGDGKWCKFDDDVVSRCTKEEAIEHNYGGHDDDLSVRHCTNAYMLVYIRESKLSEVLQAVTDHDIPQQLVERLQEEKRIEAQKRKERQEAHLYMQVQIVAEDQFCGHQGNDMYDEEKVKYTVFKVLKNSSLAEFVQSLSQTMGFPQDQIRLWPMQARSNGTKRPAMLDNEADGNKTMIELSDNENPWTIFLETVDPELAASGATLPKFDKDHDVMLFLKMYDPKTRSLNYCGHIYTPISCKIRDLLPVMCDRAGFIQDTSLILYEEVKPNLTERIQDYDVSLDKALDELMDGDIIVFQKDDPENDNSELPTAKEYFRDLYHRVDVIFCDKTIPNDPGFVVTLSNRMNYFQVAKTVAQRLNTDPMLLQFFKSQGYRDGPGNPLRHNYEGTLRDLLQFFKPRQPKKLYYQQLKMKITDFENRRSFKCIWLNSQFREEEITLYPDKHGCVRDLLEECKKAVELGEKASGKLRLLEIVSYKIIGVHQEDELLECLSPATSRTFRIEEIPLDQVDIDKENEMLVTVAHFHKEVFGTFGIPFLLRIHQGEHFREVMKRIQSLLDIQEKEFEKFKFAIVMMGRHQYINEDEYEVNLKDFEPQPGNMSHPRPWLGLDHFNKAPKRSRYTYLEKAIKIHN
Excerpt: To explain the selectivity of IU1, we first compared the sequence conservation among the USP family. USP14 shares homology with USP2, IsoT, USP7, and USP15, ranging from 28% to 35%, in the catalytic domain. […] First, we compared the structure of USP14^CAT-IU1 with that of apo USP7 (Fig. 3a, b). H426 and Y436 in USP14 aligned well with the corresponding residues in USP7. […] Consistent with this scenario, when we compared the primary sequence and structure of USP14^CAT-IU1 with UCH-L1 and UCH-L3, neither the primary sequence nor the structure of USP14 aligned well with UCH-L1 or UCH-L3 (Fig. 3e, f).
(§2) Linear kinetics of Ub-AMC hydrolysis are shown on the left, and the results of the statistical analysis are shown on the right. […] Error bars represent SDs. […] All the results were visualized by SDS-PAGE and Coomassie blue staining

UCH-L3 = molecular target: T6, UCH-L3 (Homo sapiens, UniProt P15374); test: In vitro Ub-PA assay, UCH-L3; assay type: binding; conditions: 5 mM compound, 3 μM DUB protein, 12 μM Ub-PA
T6 construct: made in house
T6 sequence (P15374 1-230): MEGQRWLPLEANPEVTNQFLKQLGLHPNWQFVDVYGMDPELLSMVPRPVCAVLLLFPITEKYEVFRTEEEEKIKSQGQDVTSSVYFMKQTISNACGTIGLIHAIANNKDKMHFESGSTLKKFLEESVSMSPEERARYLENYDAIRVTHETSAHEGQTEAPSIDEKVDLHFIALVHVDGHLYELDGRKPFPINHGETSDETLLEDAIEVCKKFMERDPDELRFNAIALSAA
Experimental: as §2
(§3) For Ub-PA binding, 3 μM DUB protein (USP14^CAT, USP7^CAT, UCH-L1, or UCH-L3) was mixed with 12 μM Ub-PA for at least 1 h at room temperature in a reaction system containing 25 mM Tris-HCl (pH 7.5) and 150 mM NaCl. […] The DMSO concentration should be no more than 10% (v/v). All the samples were analyzed by SDS-PAGE, and the results are shown.

UCH-L1 = molecular target: T7, UCH-L1 (Homo sapiens, UniProt P09936); test: In vitro Ub-PA assay, UCH-L1; assay type: binding; conditions: 5 mM compound, 3 μM DUB protein, 12 μM Ub-PA
T7 construct: made in house
T7 sequence (P09936 1-223): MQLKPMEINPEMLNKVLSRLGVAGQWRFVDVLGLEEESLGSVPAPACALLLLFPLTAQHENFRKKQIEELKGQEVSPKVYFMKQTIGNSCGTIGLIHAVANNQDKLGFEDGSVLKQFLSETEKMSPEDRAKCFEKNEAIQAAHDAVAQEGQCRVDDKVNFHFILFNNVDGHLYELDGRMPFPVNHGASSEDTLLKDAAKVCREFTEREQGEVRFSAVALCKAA
Experimental: as §2, §3

USP14 H426E [3] = molecular target: T3, USP14 H426E; test: Ub-AMC hydrolysis assay, USP14 H426E mutant; assay type: biochemical; design: Glutathione S-transferase (GST)-tagged full-length USP14; GST (N); made in house; conditions: 15 μM compound
Excerpt: (§4) Supplementary information, Fig. S3 Structural and biochemical analyses of the three […]
(§5) (a) H426 of USP14 forms a hydrogen bind with R74 of Ub, while Y476 forms a hydrogen bound with D199. (b) The Y476K, Y476R and D199A point mutations all abolish the formation of USP14/Ub-PA complex. The result was visualized by SDS-PAGE and Coomassie blue staining. (c-f) Linear kinetics of Ub-AMC hydrolysis by USP14 WT, H426E, Y436A and […]
(§6) curves have R2>0.99. Error bars represent SDs.
as §1

USP14 Y436A [4] = molecular target: T2, USP14 Y436A; test: Ub-AMC hydrolysis assay, USP14 Y436A mutant; assay type: biochemical; design: Glutathione S-transferase (GST)-tagged full-length USP14; GST (N); made in house; conditions: 15 μM compound
Excerpt: as §4, §5, §6, §1

USP7 = molecular target: T8, USP7 (Homo sapiens, UniProt Q93009); test: In vitro Ub-PA assay, USP7; assay type: binding; conditions: 5 mM compound, 3 μM DUB protein, 12 μM Ub-PA
T8 construct: 3 μM DUB protein (USP14^CAT, USP7^CAT, UCH-L1, or UCH-L3); made in house
T8 sequence (Q93009 214-521 limits assumed): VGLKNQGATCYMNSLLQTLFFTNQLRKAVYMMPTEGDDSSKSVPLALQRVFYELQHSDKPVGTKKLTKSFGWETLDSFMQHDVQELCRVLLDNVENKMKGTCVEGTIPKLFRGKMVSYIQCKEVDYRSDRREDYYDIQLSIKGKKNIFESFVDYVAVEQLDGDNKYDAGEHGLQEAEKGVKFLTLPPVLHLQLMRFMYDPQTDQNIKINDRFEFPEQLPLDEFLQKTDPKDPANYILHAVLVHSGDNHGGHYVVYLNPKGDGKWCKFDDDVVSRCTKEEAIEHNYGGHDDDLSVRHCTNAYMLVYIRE
Experimental: as §2, §3

USP14 Y476A = molecular target: T9, USP14 Y476A (Homo sapiens, UniProt P54578, Y476A); test: Ub-AMC hydrolysis assay, USP14 Y476A mutant; assay type: biochemical; conditions: 15 μM compound
T9 construct: Glutathione S-transferase (GST)-tagged full-length USP14; GST (N); made in house
Excerpt: as §4, §5, §6, §1

USP14^CAT = molecular target: T10, USP14^CAT (Homo sapiens, UniProt P54578); test: In vitro Ub-PA assay, USP14^CAT; assay type: binding; conditions: 5 mM compound, 3 μM USP14^CAT, preincubation 1 h 25 °C, 12 μM Ub-PA
T10 construct: catalytic domain (residues 96–494) of USP14 were cloned into the pGEX-6P-1 vector; GST (N, cleaved yes); made in house
T10 sequence (P54578 96-494): as the sequence (P54578 96-494 Y436A) above, with A341Y counted along it
Experimental: All the results were visualized by SDS-PAGE and Coomassie blue staining. Ub-PA ubiquitin-propargylamide
We then turned to the biochemical Ub-PA (ubiquitin-propargylamide) assay. […] The covalent attachment of Ub-PA (8 kD) to USP14^CAT (45 kD) produced the novel USP14/Ub-PA complex with an increased molecular weight (53 kD).
as §3

| SMILES | IsoT/USP14 (proteasome-bound USP14; ratio of IC50 values IsoT/USP14) | IC50 (proteasome-bound USP14; read-out: IC50 USP14, 1 μM Ub-AMC, 15 nM USP14, 1 nM proteasome) [nM] | IC50 (IsoT) [µM] | Inhibition of Ub-PA binding to USP14 Y436A (USP14 Y436A [1]; 2.5 mM IU1-248) | Inhibition of Ub-PA binding to USP14 H426E (USP14 H426E [2]; 2.5 mM IU1-248) | Mode of inhibition of USP14 (USP14) | Solubility (Solubility) | Effect on Ub-AMC hydrolysis activity of USP7 F409A (USP7 F409A) | Inhibition of binding of Ub-PA to UCH-L3 (UCH-L3) | Inhibition of binding of Ub-PA to UCH-L1 (UCH-L1) | Inhibition of Ub-PA binding to USP14 Y436A (USP14 Y436A [1]; 5 mM IU1) | Inhibition of Ub-PA binding to USP14 H426E (USP14 H426E [2]; 5 mM IU1) | Inhibition of Ub-AMC hydrolysis activity of USP14 H426E (USP14 H426E [3]) | Inhibition of Ub-AMC hydrolysis activity of USP14 Y436A (USP14 Y436A [4]) | Inhibition of binding of Ub-PA to USP7 (USP7) | Inhibition of Ub-AMC hydrolysis activity of USP14 Y476A (USP14 Y476A) | Inhibition of formation of USP14/Ub-PA complex (USP14^CAT) |
| --- | --- | --- | --- | --- | --- | --- | --- | --- | --- | --- | --- | --- | --- | --- | --- | --- | --- |
| Cc1cc(C(=O)CN2CCCCC2)c(C)n1-c1ccc(Cl)cc1 [IU1-47] | 42.85 | 680 | 29.1 |  |  |  |  |  |  |  |  |  |  |  |  |  |  |
| Cc1cc(C(=O)CN2CCC(O)CC2)c(C)n1-c1ccc(C#N)cc1 [IU1-248, 1-[1-(4-cyanophenyl)-2,5-dimethyl-1H-pyrrol-3-yl]-2-(4-hydroxyl) piperidylethan-1-one] |  |  | 21.5 | abolished the inhibitory effect | abolished the inhibitory effect | competitive mechanism | significantly improved solubility |  |  |  |  |  |  |  |  |  |  |
| Cc1cc(C(=O)CN2CCCC2)c(C)n1-c1ccc(F)cc1 [IU1] |  |  | 143 |  |  | competitive inhibitor | poor solubility | decreased | did not inhibit | did not inhibit | could not be inhibited | could not be inhibited | no inhibition | no inhibition | did not inhibit | no inhibition | significantly inhibited |
